# Biological target: T1, Recombinant human TMPRSS2 protein (106-492 aa) (Homo sapiens, UniProt O15393)
# T1 construct: Human TMPRSS2-(AA 106-492)-; purchased CusaBio CSB-YP023924HU; host or cells: yeast
# Test: TMPRSS2 Assay 1 (Example 41), fluorogenic Boc-Gln-Ala-Arg-AMC cleavage
# Assay type: biochemical
# Conditions: TMPRSS2 10 nM, substrate 25 μM, 20 min pre-incubation
# Description: The enzyme (TMPRSS2, CusaBio cat #CSB-YP023924HU. Recombinant human TMPRSS2 protein (106-492 aa)N-terminal 6×His-tagged (“6×His” disclosed as SEQ ID NO: 4), expressed in yeast cells; MW=44.8 kDa, lyophilized from 20 mM: Tris HCl, 0.5 M NaCl, 6% Trehalose, pH 8.0, >85% purity as determined by SDS-PAGE. Uniprot: 015393; 10 nM in the reaction) and substrate (Boc-Gln-Ala-Arg-AMC; Enzo Cat #BML-P237-0005, MW=581.76 Da. 25 μM in the reaction) were prepared in Reaction Buffer (50 mM Tris-HCl pH 8, 150 mM NaCl, 0.005% Brij35, 1% DMSO). After the enzyme solution was delivered into the reaction well, the compounds in DMSO were delivered to the reaction mixture by using Acoustic Technology (Echo 550, LabCyte Inc. Sunnyvale, CA) in nanoliter range. After 20 min pre-incubation, the substrate solution was delivered into the reaction well to initiate the reaction. The enzyme activities were monitored every 5 min as a time-course measurement of the increase in fluorescence signal from fluorescently-labeled peptide substrate for 120 min. at room temperature. Data was analyzed by taking slope*(signal/time) of linear portion of measurement. The slope was calculated using Excel, and the curve fits were performed using Prism software.
# T1 sequence (O15393 106-492): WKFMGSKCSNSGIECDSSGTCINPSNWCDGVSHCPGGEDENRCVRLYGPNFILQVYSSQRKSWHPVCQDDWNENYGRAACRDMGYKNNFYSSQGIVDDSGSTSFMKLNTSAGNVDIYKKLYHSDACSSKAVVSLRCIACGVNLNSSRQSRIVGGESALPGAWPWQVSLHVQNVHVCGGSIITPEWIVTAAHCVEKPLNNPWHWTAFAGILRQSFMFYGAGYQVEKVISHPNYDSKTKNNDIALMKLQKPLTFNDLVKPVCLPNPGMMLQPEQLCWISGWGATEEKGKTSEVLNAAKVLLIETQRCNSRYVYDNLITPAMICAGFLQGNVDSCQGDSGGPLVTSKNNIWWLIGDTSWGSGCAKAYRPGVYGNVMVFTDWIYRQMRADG
row,Structure (SMILES),IC50
1,"COc1ccc2nc(C(Cc3cccc(C(=N)N)c3)NS(=O)(=O)c3ccccc3)sc2c1 (single isomer, unassigned) [11 (enantiomer 1), 3-[2-Benzenesulfonamido-2-(6-methoxy-1,3-benzothiazol-2-yl)ethyl]benzene-1-carboximidamide]",> 10 µM
2,"CN1CCN(c2cccc3nc(C(Cc4cccc(C(=N)N)c4)NS(=O)(=O)c4ccccc4)sc23)CC1 (stereo not drawn) [Compound 15, 3-{2-Benzenesulfonamido-2-[7-(4-methylpiperazin-1-yl)-1,3-benzothiazol-2-yl]ethyl}benzene-1-carboximidamide]",< 10 µM
3,"N=C(N)c1cccc(CC(NS(=O)(=O)c2cccc(-c3ccc(Cl)cc3Cl)c2)c2nc3ccccc3s2)c1 (single isomer, unassigned) [3 (enantiomer 1), 3-[2-(1,3-Benzothiazol-2-yl)-2-{2′,4′-dichloro-[1,1′-biphenyl]-3-sulfonamido}ethyl]benzene-1-carboximidamide]",> 10 µM
4,"N=C(N)c1cccc(CC(NS(=O)(=O)c2ccccc2)c2nc3ccc(O)cc3s2)c1 (stereo not drawn) [Compound 20, 3-[2-(benzenesulfonamido)-2-(6-hydroxy-1,3-benzothiazol-2-yl)ethyl]benzamidine]",< 10 µM
5,"N=C(N)c1cccc(CC(NS(=O)(=O)c2ccccc2)c2nc3cnccc3s2)c1 (stereo not drawn) [Compound 18, 3-(2-Benzenesulfonamido-2-{[1,3]thiazolo[4,5-c]pyridin-2-yl}ethyl)benzene-1-carboximidamide]",< 10 µM
6,"N=C(N)c1cccc(CC(NS(=O)(=O)c2cccc(-c3ccc(Cl)cc3Cl)c2)c2nccs2)c1 (single isomer, unassigned) [Compound 5 (Isomer 2), 3-[2-{2′,4′-Dichloro-[1,1′-biphenyl]-3-sulfonamido}-2-(1,3-thiazol-2-yl)ethyl]benzene-1-carboximidamide]",< 10 µM
7,"N=C(N)c1cccc(CC(NS(=O)(=O)c2cccc(-c3ccc(Cl)cc3Cl)c2)c2nccs2)c1 (single isomer, unassigned) [5 (Isomer 1, batch 1), 3-[2-{2′,4′-Dichloro-[1,1′-biphenyl]-3-sulfonamido}-2-(1,3-thiazol-2-yl)ethyl]benzene-1-carboximidamide]",< 10 µM
8,"N=C(N)c1cccc(CC(NS(=O)(=O)c2ccccc2)c2nc3ccc(C(F)(F)F)cc3s2)c1 (single isomer, unassigned) [14 (enantiomer 1)]",> 10 µM
9,"N=C(N)c1cccc(CC(NS(=O)(=O)c2cccc(Br)c2)c2nccs2)c1 (stereo not drawn) [Compound 4, 3-[2-(3-Bromobenzenesulfonamido)-2-(1,3-thiazol-2-yl)ethyl]benzene-1-carboximidamide]",> 10 µM
10,"N=C(N)c1cccc(CC(NS(=O)(=O)c2ccccc2)c2nc3cc(C(F)(F)F)ccc3s2)c1 (single isomer, unassigned) [12 (enantiomer 1), 3-{2-Benzenesulfonamido-2-[5-(trifluoromethyl)-1,3-benzothiazol-2-yl]ethyl}benzene-1-carboximidamide]",> 10 µM
11,"N=C(N)c1cccc(CC(NS(=O)(=O)c2ccccc2)c2nc3ccc(C(F)(F)F)cc3s2)c1 (single isomer, unassigned) [14 (enantiomer 2)]",< 10 µM
12,"N=C(N)c1cccc(CC(NS(=O)(=O)c2ccccc2)c2nc3cccnc3s2)c1 (stereo not drawn) [Compound 19, 3-(2-Benzenesulfonamido-2-{[1,3]thiazolo[5,4-b]pyridin-2-yl}ethyl)benzene-1-carboximidamide]",< 10 µM
13,"N=C(N)c1cccc(CC(NS(=O)(=O)c2cccc(-c3ccc(Cl)cc3Cl)c2)c2nccs2)c1 (single isomer, unassigned) [Compound 5 (Isomer 3), 3-[2-{2′,4′-Dichloro-[1,1′-biphenyl]-3-sulfonamido}-2-(1,3-thiazol-2-yl)ethyl]benzene-1-carboximidamide]",< 10 µM
14,"N=C(N)c1cccc(CC(NS(=O)(=O)c2ccccc2)c2nc3cc(C(F)(F)F)ccc3s2)c1 (single isomer, unassigned) [12 (enantiomer 2), 3-{2-Benzenesulfonamido-2-[5-(trifluoromethyl)-1,3-benzothiazol-2-yl]ethyl}benzene-1-carboximidamide]",< 10 µM
15,"Cn1cnnc1[C@H](Cc1cccc(C(=N)N)c1)NS(=O)(=O)c1cccc(-c2ccc(Cl)cc2Cl)c1 [Compound 6, 3-[(2S)-2-{2′,4′-Dichloro-[1,1′-biphenyl]-3-sulfonamido}-2-(4-methyl-4H-1,2,4-triazol-3-yl)ethyl]benzene-1-carboximidamide]",> 10 µM
16,"N=C(N)c1cccc(CC(NS(=O)(=O)c2ccccc2)c2nc3ccccc3s2)c1 (single isomer, unassigned) [Compound 1 (enantiomer 2, batch 1), 3-[2-Benzenesulfonamido-2-(1,3-benzothiazol-2-yl)ethyl]benzene-1-carboximidamide]",< 10 µM
17,"N=C(N)c1cccc(CC(NS(=O)(=O)c2cccc(-c3ccc(Cl)cc3Cl)c2)c2nc3ccccc3s2)c1 (single isomer, unassigned) [3 (enantiomer 2), 3-[2-(1,3-Benzothiazol-2-yl)-2-{2′,4′-dichloro-[1,1′-biphenyl]-3-sulfonamido}ethyl]benzene-1-carboximidamide]",< 10 µM
18,"N=C(N)c1cccc(CC(NS(=O)(=O)c2ccccc2)c2nc3ccccc3s2)c1 (single isomer, unassigned) [Compound 1 (enantiomer 1, batch 1), 3-[2-Benzenesulfonamido-2-(1,3-benzothiazol-2-yl)ethyl]benzene-1-carboximidamide]",> 10 µM
19,"N=C(N)c1cccc(CC(NS(=O)(=O)c2ccccc2)c2nc3cccc(Cl)c3s2)c1 (stereo not drawn) [Compound 13, 3-[2-Benzenesulfonamido-2-(7-chloro-1,3-benzothiazol-2-yl)ethyl]benzene-1-carboximidamide]",< 10 µM
20,"COCCN(C)c1cccc2nc(C(Cc3cccc(C(=N)N)c3)NS(=O)(=O)c3ccccc3)sc12 (stereo not drawn) [Compound 17, 3-(2-Benzenesulfonamido-2-{7-[(2-methoxyethyl)(methyl)amino]-1,3-benzothiazol-2-yl}ethyl)benzene-1-carboximidamide]",< 10 µM
21,"N=C(N)c1cccc(CC(NS(=O)(=O)c2ccccc2)c2nc3cccc(Cl)c3s2)c1 (single isomer, unassigned) [13 (enantiomer 1), 3-[2-Benzenesulfonamido-2-(7-chloro-1,3-benzothiazol-2-yl)ethyl]benzene-1-carboximidamide]",> 10 µM
22,"CN(C)CCN(C)c1cccc2nc(C(Cc3cccc(C(=N)N)c3)NS(=O)(=O)c3ccccc3)sc12 (stereo not drawn) [Compound 16, 3-[2-Benzenesulfonamido-2-(7-{[2-(dimethylamino)ethyl](methyl)amino}-1,3-benzothiazol-2-yl)ethyl]benzene-1-carboximidamide]",> 10 µM
23,"N=C(N)c1cccc(CC(NS(=O)(=O)c2ccccc2)c2nc3cc(C(F)(F)F)ccc3s2)c1 (stereo not drawn) [Compound 12, 3-{2-Benzenesulfonamido-2-[5-(trifluoromethyl)-1,3-benzothiazol-2-yl]ethyl}benzene-1-carboximidamide]",< 10 µM
24,"Cc1ccc2sc(C(Cc3cccc(C(=N)N)c3)NS(=O)(=O)c3ccccc3)nc2c1 (stereo not drawn) [Compound 9, 3-[2-Benzenesulfonamido-2-(5-methyl-1,3-benzothiazol-2-yl)ethyl]benzene-1-carboximidamide]",< 10 µM
25,"N=C(N)c1cccc(C[C@H](NS(=O)(=O)c2ccccc2)c2nc3ccc(C(F)(F)F)cc3s2)c1 [14 (batch 1), 3-[(2S)-2-Benzenesulfonamido-2-[6-(trifluoromethyl)-1,3-benzothiazol-2-yl]ethyl]benzene-1-carboximidamide]",< 10 µM
26,"N=C(N)c1cccc(CC(NS(=O)(=O)c2ccccc2)c2nc3cccc(Cl)c3s2)c1 (single isomer, unassigned) [13 (enantiomer 2), 3-[2-Benzenesulfonamido-2-(7-chloro-1,3-benzothiazol-2-yl)ethyl]benzene-1-carboximidamide]",< 10 µM
27,"COc1ccc2nc(C(Cc3cccc(C(=N)N)c3)NS(=O)(=O)c3ccccc3)sc2c1 (stereo not drawn) [Compound 8, 3-[2-Benzenesulfonamido-2-(6-methoxy-1,3-benzothiazol-2-yl)ethyl]benzene-1-carboximidamide]",< 10 µM
28,"COc1ccc2nc(C(Cc3cccc(C(=N)N)c3)NS(=O)(=O)c3ccccc3)sc2c1 (single isomer, unassigned) [11 (enantiomer 2), 3-[2-Benzenesulfonamido-2-(6-methoxy-1,3-benzothiazol-2-yl)ethyl]benzene-1-carboximidamide]",< 10 µM
29,"N=C(N)c1cccc(CC(NS(=O)(=O)c2ccccc2)c2ncc[nH]2)c1 (stereo not drawn) [Compound 7, 2-[2-{3-[Amino(iminiumyl)methyl]phenyl}-1-benzenesulfonamidoethyl]-1H-imidazol-3-ium dichloride]",> 10 µM
30,"N=C(N)c1cccc(CC(NS(=O)(=O)c2ccccc2)c2nc3c(s2)CNCC3)c1 (stereo not drawn) [Compound 10, 3-(2-Benzenesulfonamido-2-{4H,5H,6H,7H-[1,3]thiazolo[5,4-c]pyridin-2-yl}ethyl)benzene-1-carboximidamide]",> 10 µM

# Reference: patent US20240132457A1, “3-(2-(BENZO[D]THIAZOL-2-YL)-2-(PHENYLSUFONAMIDO)ETHYL)BENZIMIDAMIDE DERIVATIVES AND RELATED COMPOUNDS AS TMPRSS2 INHIBITORS FOR THE TREATMENT OF VIRAL INFECTIONS” (INTEGERBIO, INC., priority 2020, published 2024)
